Reference: patent US5830885A, “Antiproliferative vitamin D3 hybrids” (The Johns Hopkins University, priority 1996, dated 1998)
Values joined by “and” are separate entries in the source; they are usually repeats but may differ in a detail not shown here. Identical values can stand only once. “Also recorded” adds a separate entry of the source.

Key:
[1] = molecular target: T1, calf thymus VDR (Bos taurus, UniProt Q28037); experiment: VDR binding assay, displacement of [^3 H]-1,25(OH)2 D3 from VDR; settings: for binding to the 1,25(OH)2-vitamin D3 receptor (VDR), % of calcitriol's binding / VDR binding affinity relative to that of calcitriol: relative to calcitriol; for Amount Bound (amount that results in 50% displacement of [^3 H]-1,25(OH)2 D3 from VDR): Table 6, calf thymus VDR; for times less strongly bound to VDR than 1,25(OH)2 D3: relative to 1,25(OH)2 D3
T1 construct: from the calf thymus VDR; from tissue; host or cells: calf thymus
T1 sequence (Q28037 1-426): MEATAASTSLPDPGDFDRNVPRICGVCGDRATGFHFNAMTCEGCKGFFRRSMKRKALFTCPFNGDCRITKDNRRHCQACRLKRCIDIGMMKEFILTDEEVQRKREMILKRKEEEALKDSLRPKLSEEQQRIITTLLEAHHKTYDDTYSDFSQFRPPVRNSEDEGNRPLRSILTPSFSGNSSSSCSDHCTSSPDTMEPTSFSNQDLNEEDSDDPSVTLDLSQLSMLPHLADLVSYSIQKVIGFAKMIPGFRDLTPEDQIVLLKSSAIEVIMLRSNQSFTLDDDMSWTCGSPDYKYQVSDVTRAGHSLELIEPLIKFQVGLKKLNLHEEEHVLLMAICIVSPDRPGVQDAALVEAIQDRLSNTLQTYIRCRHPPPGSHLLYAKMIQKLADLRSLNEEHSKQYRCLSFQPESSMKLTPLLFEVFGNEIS
Procedure: The VDR binding assay was performed according to the procedure of Reinhardt, T. A., Horst, R. L., Orf, J. W., Hollis, B. W., J. Clin. Endocrin. Metab., 58: 91-98 (1984), the entire contents of which are hereby incorporated herein by reference.

[2] = tested on: cell proliferation; experiment: Anti-proliferative activity (summary statements); format: cell-based; settings: compared with calcitriol or in general words
[3] = Crystallization behaviour; format: physicochemical
[4] = Solubility in organic solvents; format: physicochemical; settings: methylene chloride, chloroform, methanol; for YA/YB also EtOAc, acetone
[5] = tested on: calcium channels; experiment: Calcium channel opening assay; format: cell-based; settings: Bay K 1 μM, in the experiments of each compound's line
[6] = tested on: murine keratinocyte cells (cell line PE); experiment: Growth inhibition of PE keratinocytes (MTT assay); format: cell-based; settings: for inhibition of proliferation of PE cells: FIG. 7
Procedure: (§1) The compounds were tested for growth inhibition of murine keratinocyte cells (cell line PE) and for the inhibition of TPA-induced ornithine decarboxylase (ODC) activity.
The PE cell line culture medium used in the tests consisted of Eagle's minimal essential medium without calcium chloride supplemented with 8% chelexed fetal calf serum and 1% antibiotic-antimycotic and the addition of CaCl2 to 0.05 mM Ca^++.
PE cells were seeded at a density of 5,000 cells/well in 50 μl medium into 96-well microtiter plates. […] The plates were fed once at 48 hours, with the re addition of the vitamin D3 analogues at this time. At 24 hour intervals following the initial treatment of the cells with compounds, 0.1 mg ([…] of a 2 mg/ml solution) of MTT was added to the plates. After 4 hours, the MTT was removed and DMSO added to dissolve the blue formazan dye. Using a microtiter plate reader, the A505 was then determined and cell number calculated from blank-subtracted absorbance values.

[7] = tested on: ornithine decarboxylase (ODC); experiment: Inhibition of TPA-induced ornithine decarboxylase (ODC) activity in PE cells; format: cell-based, murine; settings: 1 μM, 15 minutes pretreatment, p<0.001
Procedure: as §1
The cell line PE was derived from a papilloma induced in female SENCAR mice by a standard skin initiation/promotion protocol (Carcinogenesis, 7:949-958 (1986), the entire contents of which are hereby incorporated by reference) and was chosen for its particular sensitivity to the induction of ornithine decarboxylase (ODC) activity by the extensively characterized tumor promoter TPA. The PE cell line culture medium used in the tests consisted of Eagle's minimal essential medium without calcium chloride supplemented with 8% chelexed fetal calf serum and 1% antibiotic-antimycotic and the addition of CaCl2 to 0.05 mM Ca^++.
100 cm^2 dishes of PE cells were treated with vitamin D3 or analogues dissolved in DMSO by direct addition into the culture medium. Fifteen minutes later, the plates were treated with 100 ng/ml TPA dissolved in ethanol. […]
Cytosolic ODC activity was determined in triplicate by measuring the release of ^14 CO2 from L-[^14 C]ornithine using an Eppendorf microvessel assay as previously described (Cancer Res., 43:2555-2559 (1983), the entire contents of which are hereby incorporated by reference).

[8] = tested on: U 937 cancer cells; experiment: Induction of cell differentiation in U 937 cancer cells (Table 5); format: cell-based, human; settings: at a concentration of 10^-8 M
[9] = tested on: U 937 cancer cells; experiment: Viability of U 937 cancer cells (Table 5); format: cell-based; settings: Homo sapiens
[10] = tested on: ornithine decarboxylase (ODC); settings: literature; cited from earlier work
[11] = tested on: Human lymphoma cells U 937; settings: relative to calcitriol = 1; cited from earlier work
[12] = tested on: Human lymphoma cells U 937; settings: relative to calcitriol = 1; cited from earlier work; remark: listed apart in the source
[13] = tested on: Lewis rats; settings: relative to calcitriol = 1; cited from earlier work
[14] = in vivo; cited from earlier work
[15] = tested on: HL-60 cells; experiment: Growth inhibition of HL-60 cells; format: cell-based; settings: FIG. 8; YA and YB 10^-7 M, others 10^-6 M
Source text: YA and YB were at concentrations of 10^-7 M; the other compounds were at concentrations of 10^-6 M.

[16] = tested on: keratinocyte; experiment: Dose-response effects on keratinocyte proliferation (FIGS. 3, 4, 9, 10); format: cell-based; settings: cell numbers at 0 and 96 hours
Procedure: N0 represents the number of cells at zero hours and N1 represents the number of cells at 96 hours.

For `C=C1/C(=C\C=C2/CCC[C@]3(C)[C@@H]([C@H](C)CCCC(C)(C)O)CC[C@@H]23)C[C@H](O)C[C@H]1CO` [(+)-3, 1β-hydroxymethyl-3β-norhydroxy-3α, 25-dihydroxyvitamin D3], the “binding to the 1,25(OH)2-vitamin D3 receptor (VDR), % of calcitriol's binding” value [1] was at most 2%, the anti-proliferative activity [2] was “did not change the anti- proliferative or cell growth inhibitory activity” and the ease of crystallization [3] was “very difficult to crystallize”.

For `C=C1/C(=C\C=C2/CCC[C@]3(C)[C@@H]([C@H](C)CCCC(C)(C)O)CC[C@@H]23)C[C@@H](O)C[C@@H]1CO` [(-)-2, 1α-hydroxymethyl-25-hydroxyvitamin D3], the “binding to the 1,25(OH)2-vitamin D3 receptor (VDR), % of calcitriol's binding” value [1] was at most 2%, the “solubility in organic solvents” value [4] was “unexpectedly poor solubility; also recorded: only sparingly soluble” and the anti-proliferative activity [2] was “did not change the anti- proliferative or cell growth inhibitory activity”. The ease of crystallization [3] was “easily crystallized”.

With `COC(=O)C1=C(C)NC(C)=C([N+](=O)[O-])C1c1ccccc1C(F)(F)F` (stereo not shown) [Bay K, reference compound] the “Average peak shift compared to control” value [5] was 28.3 ± 5.6 mV and 29.0 ± 1.4 mV and 26.3 ± 4.5 mV and 27.9 ± 5.3 mV.

With `C=C1/C(=C\C=C2/CCC[C@]3(C)[C@@H]([C@H](C)CCCC(C)(C)O)CC[C@@H]23)C[C@@H](O)C[C@@H]1O` [Calcitriol, 1α,25-dihydroxyvitamin D3, reference compound] the “growth inhibition of PE cells, comparison of potency” value ([6]; calcitriol vs 1-hydroxymethyl derivatives) was “equipotent at inhibiting growth of PE cells”, the “inhibition of TPA-induced ODC activity” value [7] was “significantly inhibited the effects of TPA” and the “inhibition of TPA-induced ODC activity” value ([7]; listed as calcitriol) was “statistically significant reduction in TPA-induced ODC activity”. The “inducing cell differentiation (in words)” value [8] was “effective in inducing cell differentiation”, the viability at 0.1 µM [9] was 99% and the “inhibition of TPA effects on ODC induction as well as TPA-stimulated tumor promotion” value [10] was “shown to inhibit TPA effects on ODC induction”.

For `C=C1/C(=C\C=C2/CCC[C@]3(C)[C@@H]([C@H](C)/C=C/C=C/C(O)(CC)CC)CC[C@@H]23)C[C@@H](O)C[C@@H]1O` [EB1089], the “Relative Potency, Inhibition of Proliferation” value [11] is listed as 68, the “Relative Potency, Induction of Differentiation” value [12] is listed as 67 and the “Relative Potency, Calcemic Effects” value [13] is listed as 0.4.

In the case of `C=C1/C(=C\C=C2/CCC[C@]3(C)[C@@H]([C@@H](C)CSc4cccc(C(C)(C)O)c4)CC[C@@H]23)C[C@@H](O)C[C@@H]1O` [GS 1500], the serum half-life [14] is given as “very short serum half-life”.

With `C=C1/C(=C\C=C2/CCC[C@]3(C)[C@@H]([C@@H](C)COCCCC(C)(C)O)CC[C@@H]23)C[C@@H](O)C[C@@H]1CO` [JK 276-1] the “inhibition of proliferation of PE cells” value [6] was “inhibited proliferation of PE cells”, the “Amount Bound (amount that results in 50% displacement of [^3 H]-1,25(OH)2 D3 from VDR)” value [1] was 1650 ng and the “VDR binding affinity relative to that of calcitriol” value [1] was “less than 10^-3”. For the same compound, the “inhibition of growth of HL-60 cells” value [15] was “more modest effect”.

In the case of `C=C1/C(=C\C=C2/CCC[C@]3(C)[C@@H]([C@@H](C)COCCCC(C)(C)O)CC[C@@H]23)C[C@H](O)C[C@H]1CO` [JK 276-2], the “inhibition of proliferation of PE cells” value [6] is reported as “inhibited proliferation of PE cells; also recorded: at much lower concentrations than their corresponding 1α,3β-stereoisomers”, the “Amount Bound (amount that results in 50% displacement of [^3 H]-1,25(OH)2 D3 from VDR)” value [1] is reported as 22.5 ng and the “times less strongly bound to VDR than 1,25(OH)2 D3” value [1] is reported as “about 1500 times”. For the same compound, the “VDR binding affinity relative to that of calcitriol” value [1] was “less than 10^-3” and the “inhibition of growth of HL-60 cells” value [15] was “even more effective than YB in inhibiting growth”.

For `C=C1/C(=C\C=C2/CCC[C@]3(C)[C@@H]([C@@H](C)CSc4cccc(C(C)(C)O)c4)CC[C@@H]23)C[C@@H](O)C[C@@H]1CO` [JK 277-1], the “inhibition of proliferation of PE cells” value [6] was “inhibited proliferation of PE cells”, the “Amount Bound (amount that results in 50% displacement of [^3 H]-1,25(OH)2 D3 from VDR)” value [1] was 1450 ng and the “VDR binding affinity relative to that of calcitriol” value [1] was “less than 10^-3”. For the same compound, the “inhibition of growth of HL-60 cells” value [15] was “more modest effect”.

With `C=C1/C(=C\C=C2/CCC[C@]3(C)[C@@H]([C@@H](C)CSc4cccc(C(C)(C)O)c4)CC[C@@H]23)C[C@H](O)C[C@H]1CO` [JK 277-2] the “inhibition of proliferation of PE cells” value [6] was “inhibited proliferation of PE cells; also recorded: at much lower concentrations than their corresponding 1α,3β-stereoisomers”, the “Amount Bound (amount that results in 50% displacement of [^3 H]-1,25(OH)2 D3 from VDR)” value [1] was 40 ng and the “times less strongly bound to VDR than 1,25(OH)2 D3” value [1] was about 3750 times. The “VDR binding affinity relative to that of calcitriol” value [1] was “less than 10^-3” and the “inhibition of growth of HL-60 cells” value [15] was “even more effective than YB in inhibiting growth”.

In the case of `C=C1/C(=C\C=C2/CCC[C@]3(C)C([C@H](C)CC#CC(C)(C)O)=CC[C@@H]23)C[C@@H](O)C[C@@H]1CO` [JK III 7-1], the “effect on keratinocyte proliferation” value [16] is reported as “appears ineffective in reducing cell proliferation”.

For `C=C1/C(=C\C=C2/CCC[C@]3(C)C([C@H](C)CC#CC(C)(C)O)=CC[C@@H]23)C[C@H](O)C[C@H]1CO` [JK III 7-2], the “VDR binding affinity relative to that of calcitriol” value [1] was ~ 10^-3, the “effect on keratinocyte proliferation” value [16] was “equal to or greater than calcitriol” and the anti-proliferative activity [2] was “comparable to that of calcitriol”.

With `C=C1/C(=C\C=C2/CCC[C@]3(C)[C@@H]([C@H](C)/C=C/C=C/C(O)(CC)CC)CC[C@@H]23)C[C@H](O)C[C@H]1CO` [MCW 068-Y-EE] the “VDR binding affinity relative to that of calcitriol” value [1] was ~ 10^-3, the “effect on keratinocyte proliferation” value [16] was “much greater anti proliferative activity than MCW 068-Y-ED” and the anti-proliferative activity [2] was “comparable to that of calcitriol”.

For `C=C1/C(=C\C=C2/CCC[C@]3(C)[C@@H]([C@H](C)/C=C/[C@@H](O)C4CC4)CC[C@@H]23)C[C@@H](O)C[C@@H]1O` [Mc-903 (Calcipotriol)], the “Relative Potency, Inhibition of Proliferation” value [11] is listed as 1.3, the “Relative Potency, Induction of Differentiation” value [12] is listed as 1 and the “Relative Potency, Calcemic Effects” value [13] is listed as under 0.01.

For `C=C1/C(=C\C=C2/CCC[C@]3(C)[C@@H]([C@@H](C)OCCCC(O)(CC)CC)CC[C@@H]23)C[C@H](O)C[C@H]1CCF` [RHH 045 B, 1α- and 1β-(2-Fluoroethyl)-25-hydroxyvitamin D3 Homologs], the “VDR binding affinity relative to that of calcitriol” value [1] was ~ 10^-3, the “effect on keratinocyte proliferation” value [16] was “far more effective in inhibiting cell proliferation” and the anti-proliferative activity [2] was “comparable to that of calcitriol”.
